The test system of one data set is bloodstream T. brucei. Briefly: Trypanosome proliferation inhibition assay (GI50). Format: cell-based, Trypanosoma brucei brucei. The conditions noted are these: for Selectivity Index HL GI50/Tbb GI50: ratio between HeLa and T. brucei GI50. The protocol:
T. brucei (brucei or rhodesiense) were seeded at 4 × 10^3 cells/mL in 24-well plates (0.5 or 1 mL of culture per well). […] Then, at least five drug concentrations[26] covering this range was used for subsequent assays. Each concentration was tested in duplicate. […] Cells were counted only if they were motile. […] Final mean GI50 values were calculated based on two independent experiments, each with at least five data points performed in duplicate. T. brucei were seeded at 4 × 10^3 cells/mL and dispensed into wells of a 384-well black plate (Greiner; Frickenhausen, Germany). Wells in two columns per plate were filled with 50 μL of HMI-9 medium using a Multidrop Combi (Thermo Scientific; Waltham, MA) to serve as a background control. Fifty microliters of trypanosome suspension was added to separate columns using a Multidrop Combi. Lastly, an additional 50 μL of cell resuspension was added to only the top row of wells that contained cells (row A, labeled by Greiner), using an Xplorer multichannel pipette (Eppendorf; Hamburg-Eppendorf, Germany) bringing final volumes of cell-containing wells in the top row to 100 μL. […] St. Louis, MO). A microliter of DMSO (25%) or diluted drug was added to wells containing cells of the top row using an Xplorer multichannel pipette. Each concentration was tested in duplicate. Cells and DMSO/drug were mixed and serially diluted 1:2 down the rows of the plate. […] Cells were lysed by addition of 15 μL of SYBR Green I (Invitrogen; Carlsbad, CA) in lysis solution[30] (5X SYBR Green I, 30 mM Tris pH 7.5, 7.5 mM EDTA, 0.012% saponin and 0.12% Triton X-100) to each well. […] Data collected was exported to Excel from Ascent Software (Thermo Scientific). Base-line corrected non-linear regression graphs were generated and GI50 values determined using GraphPad Prism (GraphPad Software; La Jolla, CA). Final mean GI50 values were calculated based on four separate biological replicates.

Data set [1] relates to T. brucei. Briefly: Mouse model of HAT: oral treatment of T. brucei-infected mice. The class given is in vivo, Trypanosoma brucei brucei. Particulars: for survival of infected mice compared to control untreated animals: administered orally; for reduction of parasitemia: day six, after full oral dose days two to five (2: 20 mg/kg, 3: 25 mg/kg); for increase in average survival: infected mice treated orally, versus vehicle (5 days on average); for cure of T. brucei infection in mice: oral administration. The protocol: Cultured T. brucei were pelleted and resuspended in cold phosphate buffered saline (PBS) containing 1% glucose at 1 × 10^5 cells/mL. Female Swiss-Webster mice (8–10 weeks old, 20–25 g, n = 4 per group) (Harlan; Indianapolis, IN) were infected intraperitoneally (i.p.) with 10^4 bloodstream trypanosomes in 100 μL of PBS using 26G needles. To avoid damage to T. brucei cells, mechanical stress during administration was minimized by avoiding repeated pulling and pushing movements of cell resuspension through the syringe needle. Starting 48 h post-infection, and every 1–8 days thereafter, parasitemia was monitored by collecting 3 μL of blood from the tail vein of mice. Blood samples were supplemented with 21 μL of RBC Lysis Solution (Qiagen; Valencia, CA) and incubated at room temperature for 15–45 min. prior to observing for parasites using a Neubauer Bright-line hemocytometer. Mice with parasitemia greater than 2 × 10^8 trypanosomes/mL were euthanized. […] To compare animal survival in treatment and vehicle control groups, Student’s t-test was performed in Excel to generate p-values. All animal experiments were conducted with the approval of the Institutional Animal Care and Use Committee (IACUC) at the University of Georgia. All experimental protocols involving animals were carried out in accordance with the approved guidelines of the IACUC at the University of Georgia.
Formulated compounds or vehicle control (0.2% HPMC) were administered by oral gavage starting 24 h after mouse infection with T. brucei. Animals were weighed before each compound administration, and dose volume was adjusted based on body weight (10 mL/kg) to deliver accurate doses of test compounds. The treatment was ceased for animals when normalized body weight (NBW) loss exceeded 20%, and resumed after NBW recovery above 90%. […] 1: 30 mg/kg or 40 mg/kg, treatment regimen of “4 days on/2 days off” for a total of 14 doses; 2: 20 mg/kg (days 2–5), 10 mg/kg (day 7), 5 mg/kg (days 8–9), no drug (day 6, days 10–13); 3: 25 mg/kg (days 2–5), 12.5 mg/kg (day 7), 6.25 mg/kg (days 8–10), no drug (day 6, days 11–13). Scheduled euthanasia by CO2 overdose followed by incision to form a bilateral pneumothorax was conducted on mice considered cured 30 days after the end of experimental treatment (see previous section). Mice with parasitemia greater than 2 × 10^8 trypanosomes/mL or NBW losses ≥30% were subjected to unscheduled euthanasia.

The test system of another data set is HeLa cells. As to the kind of experiment: HeLa cell proliferation inhibition assay (GI50). Format: cell-based. The conditions noted are these: Homo sapiens; HeLa 1 × 10^5 cells/mL, 24 h with compound; read-out: Growth inhibition (GI50) ± SD HeLa.
The next data set concerns T. b. rhodesiense. As to the kind of experiment: Trypanosome proliferation inhibition assay (GI50), T. b. rhodesiense. The class given is cell-based. Particulars: Trypanosoma brucei, 4 × 10^3 cells/mL, 24-well plates, 48 h, read-out: Growth inhibition (GI50) ± SD T. b. rhodesiense.
Data set [2] is described as follows: Normalized body weight of treated T. brucei-infected mice. Format: in vivo. Particulars: oral 2 (20 mg/kg) or 3 (25 mg/kg).
Procedure: Formulated compounds or vehicle control (0.2% HPMC) were administered by oral gavage starting 24 h after mouse infection with T. brucei[33][34]. Animals were weighed before each compound administration, and dose volume was adjusted based on body weight (10 mL/kg) to deliver accurate doses of test compounds. The treatment was ceased for animals when normalized body weight (NBW) loss exceeded 20%, and resumed after NBW recovery above 90%. […] 1: 30 mg/kg or 40 mg/kg, treatment regimen of “4 days on/2 days off” for a total of 14 doses; 2: 20 mg/kg (days 2–5), 10 mg/kg (day 7), 5 mg/kg (days 8–9), no drug (day 6, days 10–13); 3: 25 mg/kg (days 2–5), 12.5 mg/kg (day 7), 6.25 mg/kg (days 8–10), no drug (day 6, days 11–13). Scheduled euthanasia by CO2 overdose followed by incision to form a bilateral pneumothorax was conducted on mice considered cured 30 days after the end of experimental treatment (see previous section). Mice with parasitemia greater than 2 × 10^8 trypanosomes/mL or NBW losses ≥30% were subjected to unscheduled euthanasia.
The conditions of data set [3]: ref Cleveland BioLabs, unpublished data; cited from earlier work.
The test system of data set [4] is T. brucei. Briefly: Thirty-hour treatment of trypanosomes: cell density, kinetoplast/nucleus copy number, DNA content. The class given is cell-based, Trypanosoma brucei brucei. The conditions noted are these: 200 nM.
Procedure: At stated times trypanosome density was determined using a Z2 Coulter Counter (Beckman). […] At the same time-points a 5 mL aliquot (5 × 10^5–1 × 10^7 cells total) was collected and analyzed by flow cytometry as described below. All data reported were obtained from three independent experiments.
T. brucei (between 5 × 10^5 cells to 1 × 10^7 cells) in 5 mL of culture medium were centrifuged (3 min, 3000 × g at room temperature) to pellet cells and washed once with 1 mL of PBS containing 10 mM glucose. Cells were fixed in 1 mL of 70% methanol supplemented by PBS at 4 °C for up to two weeks, centrifuged (3 min, 2000 × g at room temperature), and resuspended at 5 × 10^5 cells/mL in 1X PBS. RNase A and propidium iodide (PI) were added to each sample to final concentrations of 500 μg/mL and 7.5 μM, respectively, and the suspension was protected from light during incubation for 1 h at 37 °C[35]. Samples were placed on ice for 15 min and data was immediately collected on a CyAn ADP Analyzer (Beckman Coulter; Hialeah, FL). During analysis with FlowJo software (FlowJo, LLC; Ashland, OR), trypanosomes were gated from background debris by plotting “events” as forward scatter vs. side scatter (both on the logarithmic scale). Single trypanosomes were gated for cell cycle analysis from cells stuck together (“doublets”) by plotting trypanosome events as PI fluorescence vs. pulse width. Distribution of trypanosomes into groups containing different amounts of chromosomal DNA was performed using Watson-Pragmatic algorithm in FlowJo. DNA distribution values from independent experiments were averaged with error bars generated and graphed in Excel. To compare effects of drug treatment on DNA content of experimental and vehicle control groups, Student’s t-test was performed in Excel to generate p-values.
The mark [5] stands for this setting: Trypanosoma brucei, 48 h, T. brucei 4 × 10^3 cells/mL, 48 h, Fig. 1, read-out: GI50.
Where [6] appears, read: Trypanosoma brucei, 48 h, 4 × 10^3 cells/mL, 24-well plates, 48 h, Table 1, read-out: Growth inhibition (GI50) ± SD T. b. brucei.
Where [7] appears, read: Trypanosoma brucei, against T. brucei, read-out: GI50.

Read-outs that look alike come from different tables or passages of the source.

Procedure for HeLa cells: HeLa cells were seeded to 1 × 10^5 cells/mL in 24-well plates (1 mL of culture per well) and incubated drug-free for 24 h at 37 °C, 5% CO2. DMSO or stock inhibitor concentration (5 μL) was added to obtain the specified final concentrations. Cells were incubated for 24 h[28][29] at 37 °C, 5% CO2. Next, cells were trypsinized and cell density was determined with a Neubauer Bright-line hemocytometer as described[9]. GI50 for each compound was calculated by plotting data for the cell counts in Excel as described for T. brucei above. Data were obtained from two independent experiments, four separate biological replicates.
Procedure for T. b. rhodesiense: T. brucei (brucei or rhodesiense) were seeded at 4 × 10^3 cells/mL in 24-well plates (0.5 or 1 mL of culture per well). […] Compounds were initially tested at 10 nM, 100 nM or 1 μM, to define a range where cell density responded to drug concentrations. Then, at least five drug concentrations[26] covering this range was used for subsequent assays. Each concentration was tested in duplicate. Cell density was determined with a Neubauer Bright-Line hemocytometer (Sigma) after 48 h. Cells were counted only if they were motile. […] Final mean GI50 values were calculated based on two independent experiments, each with at least five data points performed in duplicate.

What is called GI50 is the concentration giving 50% growth inhibition. On to `CCN(CC)CCCC(C)n1c2ccc3c(c2c2c4c(ccc21)C(=O)CC4)CCC3=O` (stereo not shown) [CBL0100Q], for which the GI50 with bloodstream T. brucei (setting [5]) is 0.24 ± 0.002 µM. Take `CC(=O)c1ccc2c(c1)c1cc(C(C)=O)ccc1n2CCC1CCCN1C` (stereo not shown) [CBL0053]: the GI50 in the data set on bloodstream T. brucei (setting [5]) was determined as 0.058 ± 0.0053 µM. The same measure, in the same setting: the same measure for `CC(=O)c1ccc2c(c1)c1c3c(ccc1n2CCNC(C)C)C(=O)CC3` [CBL0252]: 0.0085 ± 0.00022 µM; for `CC(=O)c1ccc2c(c1)c1cc(C(C)=O)ccc1n2CCCNC(C)C` [CBL0127]: 0.17 ± 0.003 µM; for `CON=C1CCc2c1ccc1c2c2c3c(ccc2n1CCN1CCOCC1)C(=NOC)CC3` [CBL0209]: 0.46 ± 0.018 µM.

`CC(=O)c1ccc2c(c1)c1c3c(ccc1n2CC[C@@H]1CCCN1C)C(=O)CC3` [CBL0211]: the GI50 in the data set with bloodstream T. brucei (setting [5]) worked out at 0.0023 ± 0.00058 µM. For `CCN(CC)CCn1c2ccc(C#N)cc2c2cc(C#N)ccc21` [CBL0018], in the data set on bloodstream T. brucei (setting [5]), the GI50 amounted to 0.25 ± 0.02 µM.

With `CC(=O)c1ccc2c(c1)c1cc(C(C)=O)ccc1n2CCCN(C)C` [CBL0031], the GI50 in the data set on bloodstream T. brucei (setting [5]) was 0.26 ± 0.00064 µM.

As for `CCN(CC)CCn1c2ccc(C3=NCCN3)cc2c2cc(C3=NCCN3)ccc21` [CBL0030], the GI50 in the data set on bloodstream T. brucei (setting [5]) is 1.5 ± 0.21 µM. Consider `CN(C)CCCn1c2ccc3c(c2c2c4c(ccc21)C(=O)CC4)CCC3=O` [CBL0253], for which the GI50 in the data set on bloodstream T. brucei (setting [5]) amounted to 0.00074 ± 0.00027 µM. Consider `CCCNCCCn1c2ccc(C(C)=O)cc2c2c3c(ccc21)C(=O)CC3` [CBL0175], for which the GI50 with bloodstream T. brucei (setting [5]) was 0.0095 ± 0.0014 µM. Consider `CC(=O)c1cc2c3c4c(ccc3n(CCCN(C)C)c2cc1O)C(=O)CC4` [Compound 2], for which, in the data set with T. brucei [1], the “survival of infected mice compared to control untreated animals” value is listed as “increased survival”, the reduction of parasitemia was 100 fold, the “increase in average survival” value is on record as 2 fold and the “cure of T. brucei infection in mice” value is “failed to cure”. Further, in the data set with HeLa cells, the GI50 amounted to 0.58 ± 0.1 µM. Also, the GI50 with bloodstream T. brucei (setting [6]) came out at 0.0074 ± 0.0002 µM. Moreover, the GI50 with bloodstream T. brucei (setting [5]) was below 0.01 µM. The “Selectivity Index HL GI50/Tbb GI50” value in the data set on bloodstream T. brucei was 78. Besides, the GI50 in the data set on T. b. rhodesiense stood at 0.013 ± 0.003 µM. Further, in data set [2], the “weight loss of normal body weight (NBW)” value is reported as “exceeding 10%”. Also, the oral bioavailability result in data set [3] is “orally bioavailable”.

On to `CCCNCCCn1c2ccc3c(c2c2c4c(ccc21)C(=O)CC4)CCC3=O` [Compound 3], for which, in the data set with T. brucei [1], the “survival of infected mice compared to control untreated animals” value is reported as “increased survival”, the reduction of parasitemia is given as 100 fold, the “increase in average survival” value is reported as 2 fold and the “cure of T. brucei infection in mice” value is “failed to cure”. The GI50 with HeLa cells amounted to 0.52 ± 0.04 µM. Besides, the GI50 in the data set on bloodstream T. brucei (setting [6]) is 0.0022 ± 0.0001 µM. Further, the GI50 in the data set on bloodstream T. brucei (setting [5]) was below 0.01 µM. Also, in the data set with bloodstream T. brucei, the “Selectivity Index HL GI50/Tbb GI50” value was determined as 236. For the same compound, the GI50 with T. b. rhodesiense is 0.0036 ± 0.0003 µM. Also, the “weight loss of normal body weight (NBW)” value in data set [2] is recorded as “exceeding 10%”. Moreover, in data set [3], the oral bioavailability result is on record as “orally bioavailable”. In the case of `CN(C)CCCn1c2ccccc2c2cnccc21` [CBL0144], in the data set on bloodstream T. brucei (setting [7]), the GI50 is above 10 µM. In the case of `CCOC(=O)N1CCC(n2c3ccc(C(C)=O)cc3c3cc(C(C)=O)ccc32)CC1` [CBL0149], the GI50 with bloodstream T. brucei (setting [5]) is 5.3 ± 1.5 µM. Regarding `CC(=O)c1cc2c3c4c(ccc3n(CCCN(C)C)c2cc1O)C(=O)N(C)C4` [CBL0167], the GI50 with bloodstream T. brucei (T. brucei 4 × 10^3 cells/mL, 48 h, Fig. 1, read-out: GI50) is 0.021 ± 0.0029 µM; with bloodstream T. brucei (setting [5]) it was below 0.025 µM. For `CC(=O)c1cc2c3cc(C(C)=O)c(O)cc3n(CCCN(C)C)c2cc1O` [CBL0174], the GI50 with bloodstream T. brucei (setting [5]) turned out to be 0.025 ± 0.0019 µM.

Consider `CC(=O)c1ccc2c(c1)c1c3c(ccc1n2CC[C@H]1CCCN1C)C(=O)CC3` [CBL0212], for which, in the data set with bloodstream T. brucei (setting [5]), the GI50 worked out at 0.0082 ± 0.00023 µM.

Regarding `O=C1CCc2c1ccc1c2c2c3c(ccc2n1CCN1CCOCC1)C(=O)CC3` [CBL0207], the GI50 with bloodstream T. brucei (setting [5]) was 0.017 ± 0.0002 µM. `CC(C)NCCn1c2ccc3c(c2c2c4c(ccc21)C(=O)CC4)CCC3=O` [CBL0197]: the GI50 in the data set with bloodstream T. brucei (setting [5]) stood at 0.00095 ± 5e-05 µM. For `CC[n+]1c(-c2ccccc2)c2cc(N)ccc2c2ccc(N)cc21` [ethidium bromide], the “formation of dyskinetoplastic trypanosomes (0K1N)” value with T. brucei [4] (30 h time-course) is “produced dyskinetoplastic trypanosomes”. Also, the “effect on nuclear DNA content compared to vehicle” value with T. brucei [4] (30 h treatment, flow cytometry) is reported as “little or no effect”. Besides, in the data set on T. brucei [4] (T. brucei seeded 1 × 10^5 cells/mL), the “increase in cell density during 30 h treatment” value was 2.5 fold.

For the compound `CCN(CC)CCn1c2ccccc2c2cnccc21` [CBL0139], the GI50 with bloodstream T. brucei (setting [7]) is above 10 µM. For `CCN(CC)CCn1c2ccc3c(c2c2c4c(ccc21)C(=O)CC4)CCC3=O` [CBL0100], the GI50 with bloodstream T. brucei (setting [5]) is 0.00097 ± 8e-05 µM. Regarding `CCNCCCn1c2ccc3c(c2c2c4c(ccc21)C(=O)CC4)CCC3=O` [CBL0198], the GI50 in the data set with bloodstream T. brucei (setting [5]) worked out at 0.0028 ± 0.00049 µM. Same read-out and setting: with `CC(=O)c1cc2c3cc(C(C)=O)c(O)cc3n(CCNC(C)C)c2cc1O` [CBL0187] the figure was 0.033 ± 0.0021 µM. On the same count and under the same terms, the same measure for `CCN(CC)CCn1c2ccc(C(C)=O)cc2c2cc(C(C)=O)ccc21` [CBL0014]: 0.076 ± 0.02 µM.

The record behind these values is paper PMC5000474, “Discovery of a Carbazole-Derived Lead Drug for Human African Trypanosomiasis” (Scientific Reports, 2016).
